# Experimental data from US9809578B2, “Pyrazolyl urea, thiourea, guanidine and cyanoguanidine compounds as trkA kinase inhibitors” (Array BioPharma Inc., priority 2012, dated 2017).
# Molecular target: T1, His-tagged recombinant human TrkA (Homo sapiens, UniProt P04629)
# T1 construct: 6HIS tagged cytoplasmic domain from Invitrogen, Cat. No. PV3144; purchased Invitrogen PV3144
# Test: TrkA LanthaScreen Eu Kinase Binding Assay
# Details: averaged IC50; LanthaScreen Eu kinase binding, TR-FRET; read-out: TrkA enzyme IC50
# Procedure: TrkA binding activity was determined in a TrkA LanthaScreen™ Eu Kinase Binding Assay. […] Three fold serial dilutions of compounds of the invention in DMSO were added to a final percentage of 2% DMSO. […] The percent of control was calculated using a ratiometric emission factor. The IC50 values were determined by fitting a four parameter model to the percent of control data.
# T1 sequence (P04629 440-796 limits assumed): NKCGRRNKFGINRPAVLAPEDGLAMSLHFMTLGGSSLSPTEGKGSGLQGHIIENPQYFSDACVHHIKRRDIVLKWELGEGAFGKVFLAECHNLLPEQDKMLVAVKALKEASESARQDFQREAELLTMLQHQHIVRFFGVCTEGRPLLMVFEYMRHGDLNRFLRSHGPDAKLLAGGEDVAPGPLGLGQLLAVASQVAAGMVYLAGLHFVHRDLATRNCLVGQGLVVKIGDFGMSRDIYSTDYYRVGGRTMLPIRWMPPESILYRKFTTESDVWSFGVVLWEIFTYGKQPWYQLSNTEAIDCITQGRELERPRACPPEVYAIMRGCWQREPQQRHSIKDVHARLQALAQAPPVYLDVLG
row,SMILES,IC50 [nM]
1,"Cc1c(-c2cnn(C)c2)nn(-c2ccccc2)c1NC(=O)Nc1c(C)c(C(F)(F)F)nn1-c1ccccc1 [Example 6, 1-(1′,4-dimethyl-1-phenyl-1H,1′H-[3,4′-bipyrazol]-5-yl)-3-(4-methyl-1-phenyl-3-(trifluoromethyl)-1H-pyrazol-5-yl)urea]",100 to 1000
2,"Cc1c(-c2cnn(C)c2)nn(-c2ccccc2)c1NC(=O)Nc1cc(C(C)C)nn1-c1ccccc1 [Example 8, 1-(1′,4-dimethyl-1-phenyl-1H,1′H-[3,4′-bipyrazol]-5-yl)-3-(3-isopropyl-1-phenyl-1H-pyrazol-5-yl)urea]",100 to 1000
3,"Cc1c(-c2cnn(C)c2)nn(-c2ccccc2)c1NC(=O)Nc1cc(CC(F)(F)F)nn1-c1ccccc1 [Example 9, 1-(1′,4-dimethyl-1-phenyl-1H,1′H-[3,4′-bipyrazol]-5-yl)-3-(1-phenyl-3-(2,2,2-trifluoroethyl)-1H-pyrazol-5-yl)urea]",100 to 1000
4,"Cc1c(-c2cnn(C)c2)nn(-c2ccccc2)c1NC(=O)Nc1cc(CC(F)(F)F)nn1-c1ccc(F)cc1 [Example 10, 1-(1′,4-dimethyl-1-phenyl-1H,1′H-[3,4′-bipyrazol]-5-yl)-3-(1-(4-fluorophenyl)-3-(2,2,2-trifluoroethyl)-1H-pyrazol-5-yl)urea]",100 to 1000

# Second part, the molecule after the results:
row,IC50 [nM],SMILES
1,< 100,"Cc1c(-c2cnn(C)c2)nn(-c2ccccc2)c1NC(=O)Nc1cc(C2CC2)nn1-c1ccccc1 [Example 1, 1-(3-cyclopropyl-1-phenyl-1H-pyrazol-5-yl)-3-(1′,4-dimethyl-1-phenyl-1H,1′H-[3,4′-bipyrazol]-5-yl)urea]"
2,100 to 1000,"Cc1cc(NC(=O)Nc2c(C)c(-c3cnn(C)c3)nn2-c2ccccc2)n(-c2ccccc2)n1 [Example 2, 1-(1′,4-dimethyl-1-phenyl-1H,1′H-[3,4′-bipyrazol]-5-yl)-3-(3-methyl-1-phenyl-1H-pyrazol-5-yl)urea]"
3,< 100,"Cc1c(-c2ccc(=O)n(C)c2)nn(-c2ccccc2)c1NC(=O)Nc1cc(C(F)(F)F)nn1-c1ccccc1 [Example 4, 1-(4-methyl-3-(1-methyl-6-oxo-1,6-dihydropyridin-3-yl)-1-phenyl-1H-pyrazol-5-yl)-3-(1-phenyl-3-(trifluoromethyl)-1H-pyrazol-5-yl)urea]"
4,< 100,"Cc1c(-c2ccn(C)c(=O)c2)nn(-c2ccccc2)c1NC(=O)Nc1cc(C(F)(F)F)nn1-c1ccccc1 [Example 5, 1-(4-methyl-3-(1-methyl-2-oxo-1,2-dihydropyridin-4-yl)-1-phenyl-1H-pyrazol-5-yl)-3-(1-phenyl-3-(trifluoromethyl)-1H-pyrazol-5-yl)urea]"
5,< 100,"Cc1c(-c2cnn(C)c2)nn(-c2ccccc2)c1NC(=O)Nc1cc(C2CC2(F)F)nn1-c1ccccc1 (centres unmarked) [Example 7, 1-(3-(2,2-difluorocyclopropyl)-1-phenyl-1H-pyrazol-5-yl)-3-(1′,4-dimethyl-1-phenyl-1H,1′H-[3,4′-bipyrazol]-5-yl)urea]"
6,< 100,"COc1ncc(-c2nn(-c3ccccc3)c(NC(=O)Nc3cc(C(F)(F)F)nn3-c3ccccc3)c2C)cn1 [Example 11, 1-(3-(2-methoxypyrimidin-5-yl)-4-methyl-1-phenyl-1H-pyrazol-5-yl)-3-(1-phenyl-3-(trifluoromethyl)-1H-pyrazol-5-yl)urea]"
7,< 100,"Cc1c(OCCO)nn(-c2ccccc2)c1NC(=O)Nc1cc(C(F)(F)F)nn1-c1ccccc1 [Example 12, 1-(3-(2-hydroxyethoxy)-4-methyl-1-phenyl-1H-pyrazol-5-yl)-3-(1-phenyl-3-(trifluoromethyl)-1H-pyrazol-5-yl)urea]"
